Experimental data as given in patent US20220280514A1, “METHODS OF TREATING BILE ACID DIARRHEA” (THE REGENTS OF THE UNIVERSITY OF CALIFORNIA, priority 2019, published 2022).
One block for each molecule: values may come before it.

Assays:
CFTR [1] = molecular target: T1, CFTR (Homo sapiens, UniProt P13569); assay: Short-circuit current measurements in T84 cells (bile acid-induced secretory current); type: cell-based; parameters: short-circuit current provides a direct measure of apical CFTR Cl^− current; host or cells: T84 cells; details: for block of the increase in short-circuit current following CDCA application: CDCA 0.75 mM both bathing solutions, inhibitor 10 μM; for prosecretory response (increase in short-circuit current) to bile acid: bile acid added to both apical and basolateral bathing solutions
T1 sequence (P13569 whole entry): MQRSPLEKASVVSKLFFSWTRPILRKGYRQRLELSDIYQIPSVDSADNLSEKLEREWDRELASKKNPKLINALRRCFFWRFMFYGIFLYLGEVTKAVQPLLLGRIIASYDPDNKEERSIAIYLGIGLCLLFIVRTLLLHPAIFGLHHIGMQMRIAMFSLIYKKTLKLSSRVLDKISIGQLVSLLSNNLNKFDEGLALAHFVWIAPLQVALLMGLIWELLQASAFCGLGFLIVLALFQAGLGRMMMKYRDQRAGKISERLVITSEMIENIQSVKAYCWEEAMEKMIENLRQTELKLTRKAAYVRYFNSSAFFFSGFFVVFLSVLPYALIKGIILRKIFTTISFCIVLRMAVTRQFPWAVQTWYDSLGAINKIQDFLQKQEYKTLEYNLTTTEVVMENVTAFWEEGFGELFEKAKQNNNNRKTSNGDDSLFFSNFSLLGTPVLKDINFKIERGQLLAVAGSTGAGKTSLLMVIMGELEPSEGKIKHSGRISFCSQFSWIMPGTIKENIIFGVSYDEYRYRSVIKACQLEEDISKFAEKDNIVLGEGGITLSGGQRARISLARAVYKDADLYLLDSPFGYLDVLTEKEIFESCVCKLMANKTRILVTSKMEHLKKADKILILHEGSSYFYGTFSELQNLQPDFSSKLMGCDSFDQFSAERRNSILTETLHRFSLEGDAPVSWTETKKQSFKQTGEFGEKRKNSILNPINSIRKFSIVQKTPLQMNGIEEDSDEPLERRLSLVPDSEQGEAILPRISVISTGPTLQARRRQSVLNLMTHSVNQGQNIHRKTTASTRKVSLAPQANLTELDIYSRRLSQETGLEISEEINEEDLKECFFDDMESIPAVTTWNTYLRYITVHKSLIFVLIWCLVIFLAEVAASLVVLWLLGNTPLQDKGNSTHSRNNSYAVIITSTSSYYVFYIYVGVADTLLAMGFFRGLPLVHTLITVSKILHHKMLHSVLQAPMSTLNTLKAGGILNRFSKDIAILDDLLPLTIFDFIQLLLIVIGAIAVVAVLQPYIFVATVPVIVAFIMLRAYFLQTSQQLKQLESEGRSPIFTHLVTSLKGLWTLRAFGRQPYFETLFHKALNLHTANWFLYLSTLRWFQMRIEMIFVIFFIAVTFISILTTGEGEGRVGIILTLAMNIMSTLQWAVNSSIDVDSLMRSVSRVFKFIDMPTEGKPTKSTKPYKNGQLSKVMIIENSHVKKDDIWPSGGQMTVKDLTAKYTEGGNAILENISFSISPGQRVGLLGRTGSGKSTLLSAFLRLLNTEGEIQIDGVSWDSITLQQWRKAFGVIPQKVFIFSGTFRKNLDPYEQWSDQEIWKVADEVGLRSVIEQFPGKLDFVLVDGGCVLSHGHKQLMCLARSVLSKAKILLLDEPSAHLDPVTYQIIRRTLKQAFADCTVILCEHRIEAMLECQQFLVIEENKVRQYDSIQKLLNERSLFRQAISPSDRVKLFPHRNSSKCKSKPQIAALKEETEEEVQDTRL
Procedure: T84 cells (ATCC CCL-248) are cultured in a 1:1 mixture of DMEM/Ham's F-12 medium supplemented with 10% FBS, 100 U/mL penicillin and 100 μg/mL streptomycin. Cells are grown on Snapwell inserts (Costar Corning, Horseheads, N.Y.) at 37° C. in 5% CO2/95% air and used 7-14 days after plating.
T84 cells are mounted in Ussing chambers and bathed in symmetrical HCO3^−-buffered solution containing (in mM): 120 NaCl, 5 KCl, 1 MgCl2, 1 CaCl2), 10 D-glucose, 5 HEPES and 25 NaHCO3 (pH 7.4). The solutions are aerated with 95% O2/5% CO2 and maintained at 37° C. In one study, for measurement of apical Cl^− conductance, a basolateral to apical Cl^− gradient is applied in which the basolateral hemichamber contains (in mM): 120 NaCl, 1 MgCl2, 1 CaCl2, 10 D-glucose, 5 HEPES and 25 NaHCO3 (pH 7.4); in the apical solution 120 mM NaCl is replaced by 5 mM NaCl and 115 mM Na-gluconate, and the basolateral membrane is permeabilized with 250 µg/ml amphotericin B. Short-circuit current is measured using an EVC4000 multichannel voltage clamp (World Precision Instruments, Sarasota, Fla.).

CFTR [2] = molecular target: T2, CFTR (Rattus norvegicus, UniProt P34158); assay: Rat model of bile acid diarrhea (mid-colonic CDCA infusion); type: in vivo
T2 construct: from tissue; host or cells: Sprague-Dawley rats in vivo, colon
T2 sequence (P34158 whole entry, the tested form may be a part): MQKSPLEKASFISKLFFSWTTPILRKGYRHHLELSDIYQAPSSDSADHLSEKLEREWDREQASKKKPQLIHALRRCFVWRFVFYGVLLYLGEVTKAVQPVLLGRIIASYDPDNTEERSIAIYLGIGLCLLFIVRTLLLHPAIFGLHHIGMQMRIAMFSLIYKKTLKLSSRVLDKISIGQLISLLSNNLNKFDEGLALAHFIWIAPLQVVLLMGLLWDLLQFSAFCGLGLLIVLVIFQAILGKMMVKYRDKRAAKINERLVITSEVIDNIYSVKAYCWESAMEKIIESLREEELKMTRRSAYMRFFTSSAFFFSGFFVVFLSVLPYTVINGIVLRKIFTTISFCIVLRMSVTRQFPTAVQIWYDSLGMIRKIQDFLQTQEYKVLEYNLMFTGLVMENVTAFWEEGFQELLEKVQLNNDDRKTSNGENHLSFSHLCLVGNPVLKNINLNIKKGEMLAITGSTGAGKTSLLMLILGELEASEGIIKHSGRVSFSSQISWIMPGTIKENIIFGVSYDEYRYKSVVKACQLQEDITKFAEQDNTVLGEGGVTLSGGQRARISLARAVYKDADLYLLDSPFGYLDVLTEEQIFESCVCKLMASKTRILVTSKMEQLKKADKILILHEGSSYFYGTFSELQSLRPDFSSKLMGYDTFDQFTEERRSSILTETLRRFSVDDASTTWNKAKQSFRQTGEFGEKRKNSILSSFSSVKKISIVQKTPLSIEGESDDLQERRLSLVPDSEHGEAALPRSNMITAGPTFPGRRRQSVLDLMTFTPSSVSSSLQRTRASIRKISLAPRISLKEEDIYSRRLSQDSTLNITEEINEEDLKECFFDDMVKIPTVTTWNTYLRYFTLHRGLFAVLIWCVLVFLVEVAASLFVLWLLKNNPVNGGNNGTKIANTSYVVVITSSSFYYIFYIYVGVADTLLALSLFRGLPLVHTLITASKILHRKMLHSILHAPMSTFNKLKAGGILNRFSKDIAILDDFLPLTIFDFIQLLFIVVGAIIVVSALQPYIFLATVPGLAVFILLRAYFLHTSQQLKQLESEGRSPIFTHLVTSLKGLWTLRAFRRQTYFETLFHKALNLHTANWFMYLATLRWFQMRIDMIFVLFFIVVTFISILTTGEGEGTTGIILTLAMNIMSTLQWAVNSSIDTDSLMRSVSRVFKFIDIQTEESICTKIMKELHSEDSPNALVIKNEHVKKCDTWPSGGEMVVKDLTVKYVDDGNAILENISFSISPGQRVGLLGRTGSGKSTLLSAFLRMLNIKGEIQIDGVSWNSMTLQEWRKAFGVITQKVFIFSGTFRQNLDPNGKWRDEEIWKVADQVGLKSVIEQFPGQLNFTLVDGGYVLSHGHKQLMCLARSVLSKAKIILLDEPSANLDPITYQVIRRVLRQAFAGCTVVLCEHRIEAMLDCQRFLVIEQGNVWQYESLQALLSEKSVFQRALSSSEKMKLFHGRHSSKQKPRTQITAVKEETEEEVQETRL
Procedure: Female Sprague-Dawley rats (age 8-10 weeks) are administered 500 μl CDCA (10 mM in PBS) or PBS vehicle by a mid-colonic infusion using a flexible plastic tube (15 gauge, 78 mm length, Instech Laboratories, Plymouth Meeting, Pa.). Rats are intraperitoneally administered (R)-BPO-27 (10 mg/kg) (or vehicle control) 30 min before infusion. (R)-BPO-27 is dissolved in saline containing 5% DMSO and 10% Kolliphor HS. Following the infusion, rats are placed individually in metabolic cages and given free access to water and food. Stool samples are collected prior to infusion (for baseline stool water content) and over 4 hours after the infusion. Stools are weighed immediately when visualized to determine wet weight. To determine stool water content, the stool samples are dried at 70° C. for 24 hours and water content is calculated as (wet weight−dry weight)/wet weight.

CFTR [3] = molecular target: T3, CFTR (Mus musculus, UniProt P26361); assay: Short-circuit current measurement in mouse distal colon (ex vivo)
T3 construct: a full-thickness fragment is mounted in a micro-Ussing chamber; from tissue; host or cells: CD1 mouse colon, full-thickness fragment
T3 sequence (P26361 whole entry, the tested form may be a part): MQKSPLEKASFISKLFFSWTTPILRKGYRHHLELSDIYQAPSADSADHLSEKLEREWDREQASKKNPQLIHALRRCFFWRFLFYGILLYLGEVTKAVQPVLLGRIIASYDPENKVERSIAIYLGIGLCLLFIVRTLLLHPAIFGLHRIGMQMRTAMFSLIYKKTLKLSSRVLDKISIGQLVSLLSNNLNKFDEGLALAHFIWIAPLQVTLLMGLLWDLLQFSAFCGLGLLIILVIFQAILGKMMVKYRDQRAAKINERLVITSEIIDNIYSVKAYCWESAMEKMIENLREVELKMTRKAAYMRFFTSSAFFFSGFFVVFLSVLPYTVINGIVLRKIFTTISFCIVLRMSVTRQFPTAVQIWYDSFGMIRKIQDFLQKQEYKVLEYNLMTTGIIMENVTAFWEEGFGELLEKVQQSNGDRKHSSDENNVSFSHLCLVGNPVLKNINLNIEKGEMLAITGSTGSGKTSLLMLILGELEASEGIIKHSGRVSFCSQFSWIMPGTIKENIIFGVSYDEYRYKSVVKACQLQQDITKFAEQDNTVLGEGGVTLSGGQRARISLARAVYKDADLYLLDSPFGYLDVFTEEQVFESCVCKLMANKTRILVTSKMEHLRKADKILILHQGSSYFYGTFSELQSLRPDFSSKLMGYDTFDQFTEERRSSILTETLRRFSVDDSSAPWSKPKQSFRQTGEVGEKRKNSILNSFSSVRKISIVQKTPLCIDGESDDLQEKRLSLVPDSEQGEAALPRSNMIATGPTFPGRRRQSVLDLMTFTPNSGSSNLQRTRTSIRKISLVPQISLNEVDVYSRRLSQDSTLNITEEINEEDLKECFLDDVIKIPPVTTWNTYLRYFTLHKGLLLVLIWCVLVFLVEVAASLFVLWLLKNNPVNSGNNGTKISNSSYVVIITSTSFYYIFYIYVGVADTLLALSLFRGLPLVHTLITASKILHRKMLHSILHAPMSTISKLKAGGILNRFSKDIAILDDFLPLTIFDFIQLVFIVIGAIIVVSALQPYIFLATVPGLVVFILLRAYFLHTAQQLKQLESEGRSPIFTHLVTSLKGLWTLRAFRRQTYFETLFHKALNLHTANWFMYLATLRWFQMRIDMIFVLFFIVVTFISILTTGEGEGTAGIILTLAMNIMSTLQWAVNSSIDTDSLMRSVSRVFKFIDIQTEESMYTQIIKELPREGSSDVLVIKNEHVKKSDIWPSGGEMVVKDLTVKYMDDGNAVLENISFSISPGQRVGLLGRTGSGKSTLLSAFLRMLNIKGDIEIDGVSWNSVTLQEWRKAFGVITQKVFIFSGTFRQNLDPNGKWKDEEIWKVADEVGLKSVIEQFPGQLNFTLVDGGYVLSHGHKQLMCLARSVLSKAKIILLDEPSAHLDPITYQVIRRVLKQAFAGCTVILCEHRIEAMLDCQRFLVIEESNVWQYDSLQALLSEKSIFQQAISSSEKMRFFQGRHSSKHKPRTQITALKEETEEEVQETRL
From the text: For intestinal short-circuit current measurement, CD1 mice are anesthetized with isoflurane. The colon is removed, washed with ice-cold Krebs buffer, opened along the mesenteric border, and a full-thickness fragment is mounted in a micro-Ussing chamber (area 0.7 cm^2, World Precision Instruments). Hemichambers are filled with oxygenated Krebs-bicarbonate solution.

[4] = mice; 5 mg/kg intraperitoneally; cited from earlier work
CFTR [5] = molecular target: T3, CFTR; assay: CDCA-induced fluid secretion in closed intestinal loops in mice; type: in vivo; details: for reduction in loop fluid accumulation: 5 mg/kg intraperitoneally 60 min before
Procedure: CD1 mice (age 8-10 weeks) are given access to 5% dextrose water but not solid food for 24 h before experiments. Mice are administered (R)-BPO-27 (5 mg/kg) or vehicle (5% DMSO, 10% Kolliphor HS in saline) intraperitoneally 60 min before creation of closed intestinal (mid-jejunal or distal colonic) loops and injection of CDCA or PBS vehicle. […] See Cil, O., et al. (2017) Benzopyrimido-pyrrolo-oxazine-dione CFTR inhibitor (R)-BPO-27 for antisecretory therapy of diarrheas caused by bacterial enterotoxins. FASEB J 31, 751-760. For creation of loops, mice are anesthetized with isoflurane, and body temperature is maintained during surgery at 36-38° C. using a heating pad. A small abdominal incision is made to expose the intestine. For the mid-jejunal closed-loop model, 2-3 cm loops are created by sutures. Loops are injected with 100 μl PBS containing CDCA or PBS vehicle. The abdominal incision is closed with sutures, and mice are allowed to recover from anesthesia. In the colonic closed-loop model, mice are given an enema (500 μl of mineral oil) 12 hours before surgery to cleanse the colon of solids as previously reported (Haggie, P. M., et al. (2018) SLC26A3 inhibitor identified in small molecule screen blocks colonic fluid absorption and reduces constipation. JCI Insight 3, e121370) and a 1-2 cm closed loop is created by sutures. Intestinal loops are surgically removed at specified times, and loop length and weight is measured to quantify fluid secretion. In some experiments, CF mice (ΔF508 homozygous, age 8-10 weeks) are used.

CFTR [6] = molecular target: T1, CFTR; assay: Short-circuit current in primary human colonoid monolayer cultures; type: cell-based; parameters: Human cultures are generated from isolated intestinal crypts embedded in Matrigel; endogenous in cells; host or cells: primary human colonoid monolayers from three subjects; details: human colonoid monolayers
From the text: Human colonoid cultures are generated from de-identified tissue samples (other than age and sex) obtained from endoscopic or surgical procedures from three different subjects. Human cultures are generated from isolated intestinal crypts embedded in Matrigel (Corning, Tewksbury, Mass.) in 24-well plates and cultured in the presence of Wnt3A, R-spondin-1 and Noggin containing undifferentiated media (UDM) as described in Zachos, N. C. et. al (2016) Human enteroids/colonoids and intestinal organoids functionally recapitulate normal intestinal physiology and pathophysiology. J Biol Chem 291, 3759-3766; In, J., et al. (2016) Enterohemorrhagic Escherichia coli reduce mucus and intermicrovillar bridges in human stem cell-derived colonoids. Cell Mol Gastroenterol Hepatol 2, 48-62. Matrigel cultures in UDM media are used for the propagation of colonoids. To generate monolayer cultures, colonoids are triturated in Cultrex Organoid Harvesting Solution (Trevigen, Gaithersburg, Md.), and the fragments are collected by centrifugation and resuspended in UDM. Colonoid fragments (100 μL) are seeded onto 0.4 μm pore polyester membrane 24-well cell culture inserts (Transwell; Corning, Tewksbury, Mass.) pre-coated with human collagen IV (34 μg/mL; Millipore Sigma). […] Under these conditions, cultures reach confluency in 7-14 days as monitored by transepithelial resistance. […]

T84 cells = assay: Intracellular Ca2+ measurement by Fluo-4 fluorescence in T84 cells; type: cell-based; details: CDCA 0.75 or 1 mM, ATP or carbachol 100 μM, BAPTA-AM 30 μM pretreatment 30 min
Procedure: T84 cells are plated in 96-well black-walled microplates. Confluent cells are loaded with Fluo-4 NW (Invitrogen, Carlsbad, Calif.) at 72 h after plating. For Ca^2+ measurement Fluo-4 fluorescence is measured with a FluoStar fluorescence plate reader (BMG Lab Technologies, Durham, N.C.) at excitation/emission wavelengths of 485/538 nm. In some studies cells are pretreated for 30 min with BAPTA-AM. Ca^2+ measurement in human colonoid cultures is done in monolayers that are transduced with the fluorescent Ca^2+ sensor Adeno-GCsMP6s. For cAMP assay, T84 cells are grown in 24-well plates, treated for 30 min with CDCA and/or forskolin, lysed by repeating freeze/thaw, centrifuged to remove cell debris, and the supernatant is assayed for cAMP using the Parameter cAMP immunoassay kit according to the manufacturer's instructions (R&D Systems, Minneapolis, […].).

[7] = closed mid-jejunal loops, CDCA 10 mM

block of the increase in short-circuit current following CDCA application (CFTR [1]; T84 cells): fully blocked
SMILES: O=C(O)c1ccc(/C=C2\SC(=S)N(c3cccc(C(F)(F)F)c3)C2=O)cc1 [CFTRinh-172, 4-[[4-Oxo-2-thioxo-3-[3-(trifluoromethyl)phenyl]-5-thiazolidinylidene]methyl]benzoic acid, reference compound]

prosecretory response (increase in short-circuit current) to bile acid (CFTR [1]; T84 cells): No increase in short-circuit current
SMILES: C[C@H](CCC(=O)O)[C@H]1CC[C@H]2[C@@H]3[C@H](O)C[C@@H]4C[C@H](O)CC[C@]4(C)[C@H]3C[C@H](O)[C@]12C [cholic acid, reference compound]

increase in stool water content (CFTR [2]; rats, mid-colonic infusion of CDCA 10 mM, stool over 4 hours): ~25% | increase in short-circuit current (CFTR [3]; CDCA 1 mM added to apical bathing solution, mean±S.E.M., n=3): 5.2±1.4 μA/cm^2 | increase in short-circuit current (in words) (CFTR [3]; CDCA added to basolateral bathing solution): No increase in short-circuit current | prosecretory response (increase in short-circuit current) to bile acid (CFTR [1]; T84 cells): robust secretory current
SMILES: C[C@H](CCC(=O)O)[C@H]1CC[C@H]2[C@@H]3[C@H](O)C[C@@H]4C[C@H](O)CC[C@]4(C)[C@H]3CC[C@]12C [CDCA, chenodeoxycholic acid, reference compound]

effect on stool quantity or water content (CFTR [2]; rats receiving mid-colonic infusion of PBS, 10 mg/kg intraperitoneally): does not affect | inhibition of the increase in stool water content (CFTR [2]; rats, mid-colonic CDCA infusion 10 mM, 10 mg/kg intraperitoneally 30 min before, stool over 4 hours): ~55% | reduction in loop fluid accumulation (CFTR [5]; closed colonic loops, CDCA 2.5, 10 mM): ~70% | reduction in loop fluid accumulation (CFTR [5]; [7]): 55% | change in short-circuit current after (R)-BPO-27 (CFTR [3]; after apical CDCA 1 mM, (R)-BPO-27 10 μM, mean±S.E.M., n=3): −5.2±1.7 μA/cm^2 | reversal of CDCA-induced short-circuit current (CFTR [3]; apical CDCA 1 mM, (R)-BPO-27 10 μM): fully reversed | block of the increase in short-circuit current following CDCA application (CFTR [1]; T84 cells): fully blocked | block of secretory current produced by CDCA, DCA and their taurine conjugates (CFTR [1]; T84 cells, bile acids in apical and basolateral solutions, (R)-BPO-27 10 μM): blocked | IC50 (CFTR [1]; T84 cells, concentration-dependence studies, data not shown, read-out: IC50 for inhibition of CDCA-induced short-circuit current): < 1000 nM | block of increased current after CDCA followed by forskolin (CFTR [1]; T84 cells, forskolin 10 μM, (R)-BPO-27 10 μM): fully blocked | inhibition of CDCA-activated apical CFTR Cl− current (CFTR [1]; basolateral membrane-permeabilized T84 monolayers, Cl− gradient, apical CDCA 0.75 or 1 mM, (R)-BPO-27 10 μM): inhibition by (R)-BPO-27 is confirmed | reversal of CDCA-induced increase in short-circuit current (CFTR [6]; apical CDCA, (R)-BPO-27 5 μM): reversed
SMILES: Cn1c(=O)c2c(-c3ccccc3)n3c(c2n(C)c1=O)[C@H](c1ccc(Br)o1)Oc1ccc(C(=O)O)cc1-3 [(R)-BPO-27, 6-(5-Bromofuran-2-yl)-7,9-dimethyl-8,10-dioxo-11-phenyl-7,8,9,10-tetrahydro-6H-benzo[b]pyrimido [4′,5′:3,4]pyrrolo [1,2-d][1,4]oxazine-2-carboxylic acid]
serum levels [4]: therapeutic serum levels for several hours

SMILES: CC(=O)OCOC(=O)CN(CC(=O)OCOC(C)=O)c1ccccc1OCCOc1ccccc1N(CC(=O)OCOC(C)=O)CC(=O)OCOC(C)=O [BAPTA-AM, 1,2-Bis(2-aminophenoxy)ethane-N,N,N′,N′-tetraacetic acid tetrakis(acetoxymethyl ester), reference compound]
block of Ca2+ elevations (T84 cells): largely blocked | block of CDCA-induced increase in short-circuit current by pretreatment (CFTR [1]; T84 cells, CDCA 1 mM, BAPTA-AM 30 μM pretreatment 25 min): largely blocked | reduction of CDCA-induced increase in short-circuit current by pretreatment (CFTR [6]; CDCA 0.5 mM, BAPTA-AM 30 μM pretreatment 20 min): greatly reduced

effect on loop fluid accumulation (in words) (CFTR [5]; [7]): no significant effect
SMILES: Cn1c(=O)c2c(-c3ccccc3)n3c(c2n(C)c1=O)[C@@H](c1ccc(Br)o1)Oc1ccc(C(=O)O)cc1-3 [(S)-BPO-27, 6-(5-Bromofuran-2-yl)-7,9-dimethyl-8,10-dioxo-11-phenyl-7,8,9,10-tetrahydro-6H-benzo[b]pyrimido [4′,5′:3,4]pyrrolo [1,2-d][1,4]oxazine-2-carboxylic acid, reference compound]
